From publication PMC8401404 (Molecules, 2021)

Key:
[1] = system: S. cerevisiae ATCC 7752; test: Broth microdilution testing (CLSI); assay type: cell-based, Saccharomyces cerevisiae; settings: Saccharomyces cerevisiae, ATCC7752; broth microdilution, 16–24h at 37 °C; read-out: MIC S. cerevisiae ATCC 7752
Protocol: (§1) Broth microdilution testing was performed according to CLSI (Clinical Laboratory Standards Institute) guidelines. MIC (minimal inhibitory concentration) value was defined as the last tested concentration of compound at which there is no visible growth of bacteria. […] Clinical and Laboratory Standards Institute (CLSI) guidelines.

[2] = system: NCI-H358; test: BrdU proliferation assay, 3D hanging drop cell culture; assay type: cell-based, human; settings: Homo sapiens, NCI-H358, 3D, n = 2, read-out: Proliferation Assay IC50 ± SD
Protocol: (§2) MTS assay gives us information about the number of living cells, in this case, metabolically active cells, whereas the BrdU proliferation assay gives a measure of the cell population in active division phase. Both assays were performed in 2D and 3D assay formats. For the 2D cell assay format, we used classic two-dimensional in vitro assays and as a 3D assay we used a hanging drop proliferation cell assay as previously described. We explored the activity of compounds on three human lung cancer cell lines, A549, HCC827 and NCI-H358. The compound activity was also tested on human lung fibroblast cell line MRC-5. A two-dimensional in vitro viability assay was performed on the MRC-5 cell line to see if tested compounds are cytotoxic on normal cell lines in low concentrations. […] 7.1.
(§3) Test compounds were synthesized by a research group at the Department of Organic Chemistry, Faculty of Chemical Engineering and Technology, University of Zagreb. […] Compounds were diluted 1:3. We transferred 500 nL (for 2D cell culture) or 400 nL (for 3D cell culture) of the compound from a mother plate to test plate by using Mosquito (TTP labtech). DMSO percentage in test concentrations was 0.5–1.0%. Starting concentration of the test compounds and standard compound doxorubicin was 50 µM (2D cell culture) or 100 µM (3D cell culture).
(§4) Cells were grown in 96-well Perfecta 3D hanging drop plates 5000 cell/well for 4 days until spheres were formed (and checked under the microscope). After sphere formation cells were treated with compounds followed by 72 h incubation. Cell viability assay was performed according to the manufacturer’s instructions, using CellTiter GLO 3D for 3D cell culture (Promega); cell incubation was 5 min on the shaker followed by 25 min incubation in the dark. Plates were read using PE EnVision luminescence.
(§5) Proliferation assay was performed using Cell Proliferation ELISA, BrdU (Sigma, St. Louis, MO, USA). Briefly, 48 h hours after compound addition, 10 µM of BrdU was added to each well and incubated for the following 24 h. After incubation, a single cell suspension was made for 3D cell culture in the new 96-well plate. Plates were centrifuged and supernatants were removed from each plate (for 2D and 3D cell culture) followed by 60 min incubation at 60 °C. The rest of the proliferation assay was performed according to the manufacturer’s instructions.
(§6) Calculation of IC50 data, curves and QC analysis was performed by using Excel tools and GraphPadPrism software (La Jolla, CA, USA), v. […] QC criteria parameters (Z’, S:B, R2, HillSlope) were checked for every IC50 curve.

[3] = system: HCC827; test: as above; assay type: cell-based, human; settings: Homo sapiens, HCC827, 3D, BrdU, n = 2, read-out: Proliferation Assay IC50 ± SD
Protocol: as §2, §3, §4, §5, §6

[4] = system: A549; test: as above; assay type: cell-based, human; settings: Homo sapiens, A549, 3D, BrdU, n = 2, read-out: Proliferation Assay IC50 ± SD
Protocol: as §2, §3, §4, §5, §6

[5] = system: NCI-H358; test: Cytotoxicity (viability) assay, 3D hanging drop cell culture; settings: Homo sapiens, NCI-H358, 72 h, read-out: Cytotoxicity Assay IC50 ± SD; NCI-H358 3D
Protocol: as §2, §3, §4, §6

[6] = system: HCC827; test: as above; settings: Homo sapiens, HCC827, 72 h, read-out: Cytotoxicity Assay IC50 ± SD; HCC827 3D
Protocol: as §2, §3, §4, §6

[7] = system: A549; test: as above; settings: Homo sapiens, A549, 72 h, read-out: Cytotoxicity Assay IC50 ± SD; A549 3D
Protocol: as §2, §3, §4, §6

[8] = system: E. coli ATCC 25922; test: Broth microdilution testing (CLSI); assay type: cell-based, Escherichia coli; settings: Escherichia coli, ATCC25922; broth microdilution, 16–24h at 37 °C; read-out: MIC E. coli ATCC 25922
Protocol: as §1

[9] = system: NCI-H358; test: MTS cytotoxicity assay, 2D cell culture; settings: Homo sapiens, NCI-H358, 72 h, read-out: Cytotoxicity Assay IC50 ± SD; NCI-H358 2D
Protocol: as §2, §3
(§7) Cells were grown in 96-well cell star polystyrene plates. We seeded 10,000 cells/well in wells 4 h prior to the treatment with different compounds concentrations and incubated for 72 h. A cell viability assay was performed according to the manufacturer’s instructions, using CellTiter 96 aqueous solution, MTS kit (Promega, Madison, WI, USA). After 0.5–2 h of cell incubation with MTS in 2D cell culture, the plates were read using PE EnVision absorbance at 490 nm.
as §6

[10] = system: HCC827; test: MTS cytotoxicity assay, 2D cell culture; settings: Homo sapiens, HCC827, 72 h, read-out: Cytotoxicity Assay IC50 ± SD; HCC827 2D
Protocol: as §2, §3, §7, §6

[11] = system: A549; test: MTS cytotoxicity assay, 2D cell culture; settings: Homo sapiens, A549, 72 h, read-out: Cytotoxicity Assay IC50 ± SD; A549 2D, 72 h, MTS; n = 2
Protocol: as §2, §3, §7, §6

[12] = system: NCI-H358; test: BrdU proliferation assay, 2D cell culture; assay type: cell-based, human; settings: Homo sapiens, NCI-H358, 2D, n = 2, read-out: Proliferation Assay IC50 ± SD
Protocol: as §2, §3, §7, §5, §6

[13] = system: HCC827; test: BrdU proliferation assay, 2D cell culture; assay type: cell-based, human; settings: Homo sapiens, HCC827, 2D, BrdU, n = 2, read-out: Proliferation Assay IC50 ± SD
Protocol: as §2, §3, §7, §5, §6

[14] = system: A549; test: BrdU proliferation assay, 2D cell culture; assay type: cell-based, human; settings: Homo sapiens, A549, 2D, BrdU, n = 2, read-out: Proliferation Assay IC50 ± SD
Protocol: as §2, §3, §7, §5, §6

[15] = MTS cytotoxicity assay, 2D cell culture, normal lung fibroblasts; settings: human, MRC-5 normal lung fibroblasts, 2D culture
Protocol: as §2, §3, §7, §6

[16] = system: S. aureus ATCC 29213; test: Broth microdilution testing (CLSI); assay type: cell-based, Staphylococcus aureus; settings: Staphylococcus aureus, ATCC29213, broth microdilution, 16–24h at 37 °C; read-out: MIC S. aureus ATCC 29213
Protocol: as §1

[17] = system: poly dA-poly dT (DNA, polymer) A/T; test: UV thermal melting at 260 nm; settings: Na+ (sodium cacodylate, I = 0.05 M), pH 7.0, r = [compound]/[polynucleotide phosphate] = 0.3, error ±0.5, per base
[18] = system: poly(dAdT)2 (DNA, polymer) AT; test: UV thermal melting at 260 nm; settings: Na+ (sodium cacodylate, I = 0.05 M), pH 7.0, r = [compound]/[polynucleotide phosphate] = 0.3, error ±0.5, per base

Structure (SMILES)	MIC [1]	IC50 [2]	IC50 [3]	IC50 [4]	IC50 [5]	IC50 [6]	IC50 [7]	melting point	MIC [8]	IC50 [9]	IC50 [10]	IC50 [11]	IC50 [12]	IC50 [13]	IC50 [14]	IC50 at 72 h [15]	MIC [16]	ΔTm [17]	ΔTm [18]
N#C/C(=C\c1ccc(-c2ccc([N+](=O)[O-])cc2)o1)c1nc2ccccc2[nH]1 [Compound 17, (E)-2-(Benzimidazol-2-yl)-3-[5-(4-nitrophenyl)furan-2-yl]acrylonitrile]	> 100 µM	> 100 µM	> 100 µM	> 100 µM	> 100 µM	> 100 µM	> 100 µM	273 to 274 °C	> 100 µM	> 50 µM	> 50 µM	> 50 µM	> 50 µM	> 50 µM	> 50 µM	> 50 µM	> 100 µM	–	–
N#Cc1ccc2[nH]c(-c3ccc(-c4ccc(Cl)cc4)o3)nc2c1 [Compound 13, 2-[5-(4-Chlorophenyl)furan-2-yl]-5(6)-cyanobenzimidazole]	> 100 µM	> 100 µM	> 100 µM	> 100 µM	> 100 µM	> 100 µM	> 100 µM	242 to 246 °C	> 100 µM	> 50 µM	> 50 µM	> 50 µM	15.7 ± 0.86 µM	> 50 µM	22.7 ± 0.54 µM	> 50 µM	> 100 µM	–	–
CC(C)NC(=N)c1ccc2nc(-c3ccc(-c4ccc([N+](=O)[O-])cc4)o3)sc2c1	–	–	–	–	–	–	–	–	–	–	–	–	–	–	–	–	–	5.5 °C	4.8 °C
N#Cc1ccc2nc(-c3ccc(-c4ccc([N+](=O)[O-])cc4)o3)sc2c1 [Compound 4, 6-Cyano-2-[5-(4-nitrophenyl)furan-2-yl]benzothiazole]	> 100 µM	> 100 µM	> 100 µM	> 100 µM	> 100 µM	> 100 µM	> 100 µM	276 to 279 °C	> 100 µM	> 50 µM	> 50 µM	> 50 µM	> 50 µM	> 50 µM	> 50 µM	> 50 µM	> 100 µM	–	–
N#Cc1ccc2[nH]c(-c3ccc(-c4ccc([N+](=O)[O-])cc4)o3)nc2c1 [Compound 10, 5(6)-Cyano-2-[5-(4-nitrophenyl)furan-2-yl]benzimidazole]	> 100 µM	> 100 µM	> 100 µM	> 100 µM	> 100 µM	> 100 µM	> 100 µM	242 to 246 °C	> 100 µM	> 50 µM	> 50 µM	> 50 µM	> 50 µM	> 50 µM	> 50 µM	> 50 µM	> 100 µM	–	–
N#C/C(=C\c1ccc(-c2ccc([N+](=O)[O-])cc2)o1)c1nc2ccccc2s1 [Compound 19, (E)-2-(Benzothiazol-2-yl)-3-[5-(4-nitrophenyl)furan-2-yl]acrylonitrile]	> 100 µM	> 100 µM	> 100 µM	> 100 µM	> 100 µM	> 100 µM	> 100 µM	240 to 242 °C	> 100 µM	> 50 µM	> 50 µM	> 50 µM	> 50 µM	> 50 µM	> 50 µM	> 50 µM	> 100 µM	–	–
N#C/C(=C\c1ccc(-c2ccc(Cl)cc2)o1)c1nc2ccccc2[nH]1 [Compound 20, (E)-2-(Benzimidazol-2-yl)-3-[5-(4-chlorophenyl)furan-2-yl]acrylonitrile]	> 100 µM	> 100 µM	0.16 ± 0.11 µM	> 100 µM	> 100 µM	9.48 ± 1.15 µM	> 100 µM	292 to 294 °C	> 100 µM	31.1 ± 4.42 µM	43.5 ± 8.17 µM	> 50 µM	14.4 ± 6.46 µM	> 50 µM	43.9 ± 54.3 µM	> 50 µM	> 100 µM	–	–
